# Results taken from article PMC11166458, “Caskin2 is a novel talin- and Abi1-binding protein that promotes cell motility” (Journal of Cell Science, 2024).
# Assays:
# pCaskin2 (S878) = experiment: Caskin2 S878 phosphorylation (GFP-Trap, western blot) in GE11tetONβ1 cells; type: cell-based; conditions: for EGF-induced phosphorylation of Caskin2 at serine 878 with inhibitor: inhibitor 100 nM, 1 h pretreatment, EGF 100 ng/ml for 15 min; for Caskin2 phosphorylation on S878 after growth factor: EGF 100 ng/ml or PDGF 50 ng/ml, serum-starved 16 h
# From the text: To explore the role of Caskin2-S878 further in regulating the Abi1 interaction, we developed a phospho-specific antibody targeting this serine. Unfortunately, high non-specific binding of the phospho-Caskin2 antibody protein sample prevented its consistent use in detecting phosphorylated Caskin2 in western blot analysis of whole-cell lysates. […] Abi1 functions downstream of growth factor receptor signaling to control Rac1-dependent actin rearrangements. Therefore, we hypothesized that Caskin2-S878 phosphorylation might occur downstream of growth factor receptor stimulation. To explore this, we conducted co-IP experiments using GE11^tetONβ1 cells stably expressing Caskin2-FL–GFP stimulated with either EGF or PDGF. […] To gain insight into the kinases involved in the EGF-induced phosphorylation of Caskin2 at serine 878, we pretreated the cells with mTOR (AZD8055) and MEK1/2 (Trametinib) inhibitors for 1 h before stimulation.
# (§1) For analysis of protein in whole-cell lysates, cells were washed three times with cold PBS, lysed in Nonidet P-40 lysis buffer [20 mM Tris-HCl pH 7.5, 100 mM NaCl, 1% NP-40), supplemented with Na3VO4 (1.5 mM), NaF (15 mM), protease inhibitor cocktail (1:1000; Sigma-Aldrich) and phosphatase inhibitor cocktail 3 (1:100; Sigma-Aldrich)] and cleared by centrifugation at 14,000 g for 1 h at 4°C. After addition of an equal volume of 4× sample buffer (200 mM Tris-HCl pH 6.8, 10% SDS, 40% glycerol 0,1% Bromophenol Blue and 2% mercaptoethanol) and heating the samples at 95°C for 5 min, the samples were loaded on Novex NuPAGE 4–12% gradient Bis-Tris gels (Invitrogen) and transferred onto Immobilon® PVDF membranes. Membranes were blocked for at least 2 h in 2% BSA in TBST (10 mM Tris-HCl pH 7.5, 150 mM NaCl with 0.05% Tween 20] before incubation with primary antibody overnight at 4°C and with secondary antibody for 1 h at room temperature. After each incubation step, the membranes were washed twice with TBST and twice with TBS (TBST without Tween 20). Finally, proteins were visualized using Clarity™ Western ECL Substrate (Bio-Rad Laboratories), as described previously ([Wang et al., 2020b]).
# (§2) GFP-Trap pulldown experiments were performed as follows. Cleared lysates containing equal amounts of proteins, as determined by a Pierce™ BCA Protein Assay, were incubated with GFP-Trap agarose beads (Chromotek) in a rotation wheel for 6 h at 4°C. Beads were washed three times with Nonidet P-40 lysis buffer and two times with cold PBS. Bound proteins and input samples (whole-cell lysates, 1%) were then loaded on gel and transferred to Immobilon-P transfer membranes, after which the blotted proteins were probed with antibodies, as described above.
# For EGF- and PDGF-BB-induced stimulation of Caskin2 phosphorylation, cells were serum starved for 16 h in DMEM without FCS. […]
# Caskin2–Abi1 = Caskin2–Abi1 binding after growth factor stimulation (GFP-Trap, western blot) in GE11tetONβ1 cells; type: cell-based; conditions: for EGF-stimulated loss of Abi1 binding with inhibitor: inhibitor 100 nM, 1 h pretreatment, EGF 100 ng/ml for 15 min; for Caskin2–Abi1 binding after growth factor: EGF 100 ng/ml or PDGF 50 ng/ml, serum-starved 16 h
# Experimental: (§3) For analysis of protein in whole-cell lysates, cells were washed three times with cold PBS, lysed in Nonidet P-40 lysis buffer [20 mM Tris-HCl pH 7.5, 100 mM NaCl, 1% NP-40), supplemented with Na3VO4 (1.5 mM), NaF (15 mM), protease inhibitor cocktail (1:1000; Sigma-Aldrich) and phosphatase inhibitor cocktail 3 (1:100; Sigma-Aldrich)] and cleared by centrifugation at 14,000 g for 1 h at 4°C.
# as §2
# For EGF- and PDGF-BB-induced stimulation of Caskin2 phosphorylation, cells were serum starved for 16 h in DMEM without FCS. The serum-starved cells were then treated with 100 ng/ml EGF (Sigma-Aldrich) or 50 ng/ml PDGF-BB (Sigma-Aldrich) at 37°C for the indicated times. Serum-starved cells treated with EGF and the signal transduction inhibitors AZD8055 (mTOR inhibitor, Selleckchem) and Tramatinib (MEK1/2 inhibitor, Selleckchem) were first pre-treated with the inhibitor for 60 min before they were treated with the growth factor for 15 min.
# endogenous talin = experiment: GFP-Trap pulldown of talin by Caskin2-GFP constructs in COS-7 cells; type: binding; conditions: western blot, n=3
# Experimental: (§4) For transient expression, COS-7 cells were grown to 70% confluence in 10 cm culture dishes and transfected with plasmid DNAs using the DEAE–dextran method ([Schaapveld et al., 1998]). Briefly, 4.5 µg of plasmid DNA was mixed with 500 µg/ml DEAE–dextran in 2.5 ml PBS. Cells were washed two times with PBS and then incubated for 30 min at 37°C with the DEAE–dextran solution. Subsequently, 80 µM chloroquine was added to the cells in 10 ml DMEM with FCS and cells were incubated at 37°C for 3 h. After aspiration of the medium, the cells were treated with 3 ml of DMEM with FCS containing 10% DMSO for 2.5 min. The DMSO solution was then removed and replaced with fresh medium, after which the cells were further incubated for 48–72 h before analysis.
# (§5) For analysis of protein in whole-cell lysates, cells were washed three times with cold PBS, lysed in Nonidet P-40 lysis buffer [20 mM Tris-HCl pH 7.5, 100 mM NaCl, 1% NP-40), supplemented with Na3VO4 (1.5 mM), NaF (15 mM), protease inhibitor cocktail (1:1000; Sigma-Aldrich) and phosphatase inhibitor cocktail 3 (1:100; Sigma-Aldrich)] and cleared by centrifugation at 14,000 g for 1 h at 4°C. After addition of an equal volume of 4× sample buffer (200 mM Tris-HCl pH 6.8, 10% SDS, 40% glycerol 0,1% Bromophenol Blue and 2% mercaptoethanol) and heating the samples at 95°C for 5 min, the samples were loaded on Novex NuPAGE 4–12% gradient Bis-Tris gels (Invitrogen) and transferred onto Immobilon® PVDF membranes. […]
# (§6) GFP-Trap pulldown experiments were performed as follows. Cleared lysates containing equal amounts of proteins, as determined by a Pierce™ BCA Protein Assay, were incubated with GFP-Trap agarose beads (Chromotek) in a rotation wheel for 6 h at 4°C. […]
# talin = experiment: GFP-Trap pulldown of talin by Caskin2-GFP constructs in GE11tetON β1 cells; type: binding; conditions: western blot, with and without doxycycline
# Experimental: as §5, §6
# HA–Abi1 = experiment: GFP-Trap co-IP of HA–Abi1 by Caskin2-GFP constructs in COS-7 cells; type: binding; conditions: for HA–Abi1 binding: GFP-Trap, western blot, three independent experiments
# Experimental: as §4, §1, §2
# GE11tetONβ1 cells = experiment: Cell migration (time-lapse cell motility) of GE11tetONβ1 cells; type: cell-based; conditions: 20 h time-lapse, DMEM 1% FCS; two independent experiments
# Experimental: Cell motility assays were conducted using time-lapse recordings of cells cultured on plastic 12-well plates in DMEM containing 1% FCS and 1% antibiotics. Phase-contrast images were acquired using a Zeiss AxioObserver Z.1 microscope equipped with a heated stage (37°C and 5% CO2), with a 10×/0.30 EC Plan-Neofluar Ph1 objective (Zeiss), captured with a Zeiss AxioCam MRm. Images were acquired every 10 min for 20 h. Cells were tracked manually using ImageJ; tracking data was analyzed using the Chemotaxis Tool plugin (Ibidi).
# 14-3-3 proteins = experiment: GFP-Trap co-IP of 14-3-3 proteins in GE11tetONβ1 cells; type: binding
# Experimental: as §5, §6
# [1] = system: endogenous Abi1, Wasf1, Cyfip2 and Nckap1; experiment: GFP-Trap co-IP of endogenous WRC components in GE11tetONβ1 cells; type: binding
# Experimental: as §5, §6
# Abi1 = experiment: Immunofluorescence colocalization of Caskin2-GFP constructs with Abi1 in GE11tetONβ1 cells; type: cell-based; conditions: cell periphery
# Experimental: PA-JEB/β4 keratinocytes were seeded on glass coverslips and cultured for 24 h in complete KGM, and then continued to be cultured for a further 16 h in DMEM with 10% FCS. GE11^tetONβ1 and MCF7 cells were seeded on glass coverslips and cultured for 24 h in DMEM with 10% FCS. Cells were fixed in 2% paraformaldehyde and permeabilized with 0.2% Triton X-100 for 5 min, blocked with PBS containing 2% bovine serum albumin (BSA; Sigma-Aldrich) for 45 min and subsequently incubated with primary and secondary antibodies for 1 h. In between antibody steps, the coverslips were washed three times with PBS. Actin fibers were visualized by staining with Phalloidin–Alexa Fluor 647 (Cell Signaling Technology). Nuclei were stained with DAPI. Samples were mounted on glass slides in Mowiol after three washing steps with PBS. Images were acquired with a Leica TCS SP5 confocal microscope with a 63× (NA 1.4) oil objective. Software for image acquisition is Leica LAS AF 3.0.2 ([Wang et al., 2020b]).
# Imaging analysis was performed using FIJI software ([Schindelin et al., 2012]). The levels of colocalization between Caskin2 and various other proteins, including integrin β4, FA proteins and CMSC components, was performed using Pearson's co-efficient analysis in the JACoP module of ImageJ ([Carisey et al., 2013]; [Wang et al., 2020b]).
# Caskin2 = experiment: GFP-Trap co-IP of Caskin2 by GFP-tagged talin constructs in COS-7 cells; type: binding, Human; conditions: western blot
# Experimental: as §4
# as §3, with “4°C. […]” for “4°C.”
# as §6
compound,measurement,setting,value
"COc1ccc(-c2ccc3c(N4CCOC[C@@H]4C)nc(N4CCOC[C@@H]4C)nc3n2)cc1CO [AZD8055, reference compound]",EGF-induced phosphorylation of Caskin2 at serine 878 with inhibitor,pCaskin2 (S878),reduced phosphorylation of Caskin2
same,EGF-stimulated loss of Abi1 binding with inhibitor,Caskin2–Abi1,"only Trametinib, either alone or in combination with AZD8055 inhibited the EGF-stimulated loss of Abi1 binding"
"CC(=O)Nc1cccc(-n2c(=O)n(C3CC3)c(=O)c3c(Nc4ccc(I)cc4F)n(C)c(=O)c(C)c32)c1 [Trametinib, reference compound]",EGF-induced phosphorylation of Caskin2 at serine 878 with inhibitor,pCaskin2 (S878),reduced phosphorylation of Caskin2
same,EGF-stimulated loss of Abi1 binding with inhibitor,Caskin2–Abi1,inhibited the EGF-stimulated loss of Abi1 binding
"Caskin2-4A–GFP: GFP-fused Caskin2 mutant with four amino acids (L1183, F1190, L1197, L1201) replaced by alanine",talin binding,endogenous talin,failed to pull down endogenous talin
Caskin2-FL–GFP: full-length Caskin2 fused to GFP,talin binding,talin,the interaction is independent of integrin β1
same,HA–Abi1 binding,HA–Abi1,efficiently pulled down
same,increase in cell motility compared to GFP-only expression,GE11tetONβ1 cells,~45%
same,precipitation of 14-3-3 proteins,14-3-3 proteins,precipitated with both Caskin2-FL–GFP and Caskin2-PRR^4A–GFP
same,"precipitation of endogenous Abi1, Wasf1, Cyfip2 and Nckap1",[1],"precipitated endogenous Abi1, Wasf1, Cyfip2 and Nckap1"
same,colocalization with Abi1,Abi1,colocalized with Abi1 at the cell periphery
Caskin2-PRR^4A–GFP: Caskin2–GFP with PxPxxPxR mutated to AxAxxAxA,HA–Abi1 binding,HA–Abi1,neither of these constructs could precipitate co-expressed HA-tagged Abi1
same,talin binding,endogenous talin,talin binding was unaffected
same,cell motility,GE11tetONβ1 cells,migrated at a similar speed as GFP-only-expressing cells
same,precipitation of 14-3-3 proteins,14-3-3 proteins,precipitated with both Caskin2-FL–GFP and Caskin2-PRR^4A–GFP
same,"precipitation of endogenous Abi1, Wasf1, Cyfip2 and Nckap1",[1],none of these were precipitated
same,colocalization with Abi1,Abi1,no such colocalization was observed
"Caskin2-S877D–GFP: phosphomimetic mutant of Caskin2–GFP, S877 to aspartic acid",HA–Abi1 binding,HA–Abi1,no obvious difference in binding
"Caskin2-S878D–GFP: phosphomimetic mutant of Caskin2–GFP, S878 to aspartic acid",reduction of HA–Abi1 binding,"HA–Abi1; co-IP, phosphomimetic mutant",~80%
Caskin2-ΔLD–GFP: Caskin2 construct with the LD motif deleted (L1183–D1202 deleted) fused to GFP,talin binding,talin,the LD motif is required for the interaction with talin
same,cell motility,GE11tetONβ1 cells,no difference in motility between Caskin2-FL–GFP- and Caskin2-ΔLD–GFP- expressing cells
Caskin2-ΔPRR–GFP: Caskin2–GFP lacking amino acids 746–1035,HA–Abi1 binding,HA–Abi1,neither of these constructs could precipitate co-expressed HA-tagged Abi1
same,talin binding,endogenous talin,talin binding was unaffected
same,cell motility,GE11tetONβ1 cells,migrated at a similar speed as GFP-only-expressing cells
same,colocalization with Abi1,Abi1,no such colocalization was observed
EGF: growth factor (Sigma-Aldrich),Caskin2 phosphorylation on S878 after growth factor,pCaskin2 (S878),increase in Caskin2 phosphorylation on S878 within 5 min
same,Caskin2–Abi1 binding after growth factor,Caskin2–Abi1,reduction in Caskin2–Abi1 binding
PDGF,Caskin2 phosphorylation on S878 after growth factor,pCaskin2 (S878),increase in Caskin2 phosphorylation on S878 within 5 min
same,Caskin2–Abi1 binding after growth factor,Caskin2–Abi1,reduction in Caskin2–Abi1 binding
Talin-R2E–GFP: talin mutant carrying two reverse charge mutations (R1523E and K1530E),Caskin2 binding to talin construct,Caskin2,slightly increased binding
"full-length exogenous talin: full-length exogenous talin, GFP-tagged",Caskin2 binding to talin construct,Caskin2,only limited binding
